Laboratory results from EP4467141A1, “PYRAZOLO-QUINOLINES AS SELECTIVE INHIBITORS OF GENOTOXIC STRESS-INDUCED IKK/NF- KB PATHWAYS FOR CANCER THERAPY” (Max-Delbrück-Centrum für Molekulare Medizin in der …, priority 2023, dated 2024).

Assays:
Assay in all cases: Kinase panel study
Format in all cases: biochemical
Conditions in all cases: read-out: Percentage of inhibition; for inhibition at 1 µM: 1000nM; for inhibition at 10 µM: 10000nM
[1] = biological target: T1, EPHB3 (Homo sapiens, UniProt P54753)
T1 construct: purchased Thermo Fisher Scientific
T1 sequence (P54753 34-998): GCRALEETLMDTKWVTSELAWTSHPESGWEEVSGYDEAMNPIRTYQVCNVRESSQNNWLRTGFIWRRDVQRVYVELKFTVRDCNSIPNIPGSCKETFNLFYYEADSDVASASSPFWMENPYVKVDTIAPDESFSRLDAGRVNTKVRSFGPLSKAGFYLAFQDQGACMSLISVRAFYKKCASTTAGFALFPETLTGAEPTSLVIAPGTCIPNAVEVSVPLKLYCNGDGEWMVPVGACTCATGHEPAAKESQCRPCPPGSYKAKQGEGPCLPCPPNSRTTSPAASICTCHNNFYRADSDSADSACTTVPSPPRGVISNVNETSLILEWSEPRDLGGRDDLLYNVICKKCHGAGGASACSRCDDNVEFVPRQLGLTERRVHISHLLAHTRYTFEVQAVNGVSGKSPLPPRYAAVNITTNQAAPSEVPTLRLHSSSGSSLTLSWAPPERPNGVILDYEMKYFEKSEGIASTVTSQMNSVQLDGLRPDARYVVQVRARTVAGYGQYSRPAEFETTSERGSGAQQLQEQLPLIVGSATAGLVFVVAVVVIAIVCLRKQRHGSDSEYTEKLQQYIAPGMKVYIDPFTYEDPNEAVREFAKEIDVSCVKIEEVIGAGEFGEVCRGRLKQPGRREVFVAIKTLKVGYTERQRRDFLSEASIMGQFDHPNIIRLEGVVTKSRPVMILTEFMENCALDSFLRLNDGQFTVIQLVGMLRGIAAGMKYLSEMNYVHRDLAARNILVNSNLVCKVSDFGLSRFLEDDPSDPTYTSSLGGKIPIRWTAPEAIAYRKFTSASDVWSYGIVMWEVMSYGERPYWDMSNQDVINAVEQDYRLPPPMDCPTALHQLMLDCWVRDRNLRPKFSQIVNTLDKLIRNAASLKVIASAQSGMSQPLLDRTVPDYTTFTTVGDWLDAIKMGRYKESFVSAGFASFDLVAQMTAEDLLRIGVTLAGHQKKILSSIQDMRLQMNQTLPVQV
In short: (§1)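 A commercial kinase profiling service ran the assays according to its ZLyte or Adapta standard protocols. Compound was present at 10 µM or 1 µM, and kinase activity loss was expressed as percent inhibition.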

[2] = biological target: T2, PRKCA (PKC alpha) (Homo sapiens, UniProt P17252)
T2 construct: purchased Thermo Fisher Scientific
In short: as §1

[3] = biological target: T3, MELK (Homo sapiens, UniProt Q14680)
T3 construct: purchased Thermo Fisher Scientific
T3 sequence (Q14680 whole entry): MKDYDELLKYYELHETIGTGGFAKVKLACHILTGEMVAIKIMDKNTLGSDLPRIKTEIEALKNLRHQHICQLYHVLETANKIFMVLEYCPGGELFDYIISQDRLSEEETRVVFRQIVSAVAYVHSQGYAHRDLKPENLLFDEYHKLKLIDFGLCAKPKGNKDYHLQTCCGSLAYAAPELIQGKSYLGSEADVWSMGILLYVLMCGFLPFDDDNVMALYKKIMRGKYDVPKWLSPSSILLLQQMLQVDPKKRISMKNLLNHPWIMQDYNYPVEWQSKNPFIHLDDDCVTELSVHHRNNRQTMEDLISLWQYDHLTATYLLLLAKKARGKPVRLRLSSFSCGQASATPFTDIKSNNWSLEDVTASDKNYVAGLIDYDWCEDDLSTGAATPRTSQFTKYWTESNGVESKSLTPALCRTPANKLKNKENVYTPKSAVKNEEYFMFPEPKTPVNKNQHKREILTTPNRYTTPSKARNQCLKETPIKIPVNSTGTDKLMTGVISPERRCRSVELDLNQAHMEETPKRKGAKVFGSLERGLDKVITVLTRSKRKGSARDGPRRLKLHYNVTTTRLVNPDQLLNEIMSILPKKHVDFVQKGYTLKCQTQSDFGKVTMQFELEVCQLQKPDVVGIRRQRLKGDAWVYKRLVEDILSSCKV
In short: as §1

[4] = biological target: T4, PI4KA (PI4K alpha) (Homo sapiens, UniProt P42356)
T4 construct: purchased Thermo Fisher Scientific
T4 sequence (P42356 whole entry): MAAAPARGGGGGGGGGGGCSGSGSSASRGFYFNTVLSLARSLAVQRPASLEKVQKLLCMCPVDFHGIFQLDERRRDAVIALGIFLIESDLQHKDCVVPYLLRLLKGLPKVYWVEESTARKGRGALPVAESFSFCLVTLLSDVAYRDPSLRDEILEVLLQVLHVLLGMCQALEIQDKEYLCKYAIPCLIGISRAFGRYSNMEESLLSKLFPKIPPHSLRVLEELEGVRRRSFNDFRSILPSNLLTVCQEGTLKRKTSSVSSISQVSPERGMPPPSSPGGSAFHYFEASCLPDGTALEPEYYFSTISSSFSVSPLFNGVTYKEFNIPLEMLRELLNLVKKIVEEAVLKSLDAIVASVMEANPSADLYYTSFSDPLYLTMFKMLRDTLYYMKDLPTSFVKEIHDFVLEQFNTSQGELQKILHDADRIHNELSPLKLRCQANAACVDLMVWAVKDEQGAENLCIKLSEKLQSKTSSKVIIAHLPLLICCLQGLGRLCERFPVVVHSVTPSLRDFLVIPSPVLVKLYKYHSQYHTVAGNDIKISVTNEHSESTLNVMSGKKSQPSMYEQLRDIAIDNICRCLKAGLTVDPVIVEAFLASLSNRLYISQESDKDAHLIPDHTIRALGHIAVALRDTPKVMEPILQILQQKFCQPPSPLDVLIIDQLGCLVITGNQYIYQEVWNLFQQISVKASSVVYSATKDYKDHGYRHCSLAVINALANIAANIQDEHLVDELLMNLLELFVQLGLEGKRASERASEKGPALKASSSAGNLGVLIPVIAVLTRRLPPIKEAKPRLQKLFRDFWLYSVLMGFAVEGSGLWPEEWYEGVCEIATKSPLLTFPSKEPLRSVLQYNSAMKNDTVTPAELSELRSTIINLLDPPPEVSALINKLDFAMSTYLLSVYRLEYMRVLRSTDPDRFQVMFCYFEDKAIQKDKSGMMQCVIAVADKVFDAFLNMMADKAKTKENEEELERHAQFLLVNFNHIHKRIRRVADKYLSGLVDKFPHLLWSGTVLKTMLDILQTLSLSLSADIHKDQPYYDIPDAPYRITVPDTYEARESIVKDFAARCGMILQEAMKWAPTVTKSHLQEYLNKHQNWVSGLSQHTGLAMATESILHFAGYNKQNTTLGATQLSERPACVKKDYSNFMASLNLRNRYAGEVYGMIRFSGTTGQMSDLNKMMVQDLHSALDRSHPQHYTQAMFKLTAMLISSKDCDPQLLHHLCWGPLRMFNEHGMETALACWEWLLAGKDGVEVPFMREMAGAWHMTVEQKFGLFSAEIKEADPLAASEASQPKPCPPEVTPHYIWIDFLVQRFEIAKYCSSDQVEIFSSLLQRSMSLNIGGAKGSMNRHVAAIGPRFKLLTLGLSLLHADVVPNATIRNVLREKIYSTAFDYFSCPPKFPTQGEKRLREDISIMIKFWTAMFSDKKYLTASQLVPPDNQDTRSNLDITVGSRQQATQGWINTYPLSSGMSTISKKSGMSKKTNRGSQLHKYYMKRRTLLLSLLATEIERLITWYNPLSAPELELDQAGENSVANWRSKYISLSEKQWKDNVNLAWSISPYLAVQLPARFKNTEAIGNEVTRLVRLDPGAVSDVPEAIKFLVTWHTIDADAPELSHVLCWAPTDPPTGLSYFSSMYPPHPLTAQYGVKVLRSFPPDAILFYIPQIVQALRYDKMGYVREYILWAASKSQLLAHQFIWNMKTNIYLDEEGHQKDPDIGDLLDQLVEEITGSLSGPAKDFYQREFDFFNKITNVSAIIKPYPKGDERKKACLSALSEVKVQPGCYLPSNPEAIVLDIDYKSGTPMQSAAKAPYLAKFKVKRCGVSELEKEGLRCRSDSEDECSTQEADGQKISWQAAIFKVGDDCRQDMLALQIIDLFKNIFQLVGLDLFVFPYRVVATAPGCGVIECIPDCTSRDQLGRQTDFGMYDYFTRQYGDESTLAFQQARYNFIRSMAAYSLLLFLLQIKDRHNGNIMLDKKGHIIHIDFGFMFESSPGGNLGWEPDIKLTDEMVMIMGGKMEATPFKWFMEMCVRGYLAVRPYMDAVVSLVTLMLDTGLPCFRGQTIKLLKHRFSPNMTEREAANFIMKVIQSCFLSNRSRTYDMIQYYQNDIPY
In short: as §1

[5] = biological target: T5, LYN A (Homo sapiens, UniProt P07948)
T5 construct: purchased Thermo Fisher Scientific
T5 sequence (P07948 whole entry): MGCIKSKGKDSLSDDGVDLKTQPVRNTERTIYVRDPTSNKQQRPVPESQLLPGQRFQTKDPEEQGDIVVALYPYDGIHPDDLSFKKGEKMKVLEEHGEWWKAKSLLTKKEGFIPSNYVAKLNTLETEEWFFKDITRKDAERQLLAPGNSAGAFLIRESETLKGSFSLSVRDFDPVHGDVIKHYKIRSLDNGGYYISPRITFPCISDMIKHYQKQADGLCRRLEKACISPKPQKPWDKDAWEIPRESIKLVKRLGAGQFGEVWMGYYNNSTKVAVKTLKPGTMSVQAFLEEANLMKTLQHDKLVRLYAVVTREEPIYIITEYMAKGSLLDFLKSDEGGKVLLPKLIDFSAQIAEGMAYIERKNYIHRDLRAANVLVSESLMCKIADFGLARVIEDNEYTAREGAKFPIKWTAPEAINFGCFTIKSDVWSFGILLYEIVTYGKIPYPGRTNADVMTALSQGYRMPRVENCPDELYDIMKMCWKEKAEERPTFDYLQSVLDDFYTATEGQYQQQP
In short: as §1

[6] = biological target: T6, TEK (Tie2) (Homo sapiens, UniProt Q02763)
T6 construct: purchased Thermo Fisher Scientific
T6 sequence (Q02763 23-1124): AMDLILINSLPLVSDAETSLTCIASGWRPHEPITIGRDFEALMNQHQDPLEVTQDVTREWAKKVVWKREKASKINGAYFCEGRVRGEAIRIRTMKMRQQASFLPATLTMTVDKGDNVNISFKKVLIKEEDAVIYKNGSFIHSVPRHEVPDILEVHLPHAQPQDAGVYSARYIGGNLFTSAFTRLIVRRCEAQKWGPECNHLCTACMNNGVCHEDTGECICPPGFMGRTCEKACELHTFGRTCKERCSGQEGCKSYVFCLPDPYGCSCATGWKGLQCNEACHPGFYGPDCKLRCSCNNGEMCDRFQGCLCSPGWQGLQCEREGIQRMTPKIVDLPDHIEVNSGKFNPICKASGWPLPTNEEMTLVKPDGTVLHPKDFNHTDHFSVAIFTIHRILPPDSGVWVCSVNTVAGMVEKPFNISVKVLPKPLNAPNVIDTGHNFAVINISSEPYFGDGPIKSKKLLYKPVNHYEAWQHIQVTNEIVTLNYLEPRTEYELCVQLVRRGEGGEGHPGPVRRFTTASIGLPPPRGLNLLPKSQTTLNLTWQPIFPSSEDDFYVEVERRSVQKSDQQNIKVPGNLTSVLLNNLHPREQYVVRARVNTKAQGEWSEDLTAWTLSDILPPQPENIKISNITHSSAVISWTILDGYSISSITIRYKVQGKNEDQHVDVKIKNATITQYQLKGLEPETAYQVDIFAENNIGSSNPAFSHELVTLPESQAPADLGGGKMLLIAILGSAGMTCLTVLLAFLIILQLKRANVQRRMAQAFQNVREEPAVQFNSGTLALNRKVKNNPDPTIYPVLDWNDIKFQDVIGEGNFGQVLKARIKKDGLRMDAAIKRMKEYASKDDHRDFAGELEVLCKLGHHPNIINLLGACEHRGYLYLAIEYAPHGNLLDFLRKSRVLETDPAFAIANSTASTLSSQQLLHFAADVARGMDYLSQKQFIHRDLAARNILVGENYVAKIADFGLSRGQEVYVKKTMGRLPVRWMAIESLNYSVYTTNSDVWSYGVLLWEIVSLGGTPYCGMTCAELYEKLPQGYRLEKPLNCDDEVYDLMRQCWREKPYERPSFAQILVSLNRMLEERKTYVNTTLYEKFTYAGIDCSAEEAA
In short: as §1

[7] = biological target: T7, DYRK4 (Homo sapiens, UniProt Q9NR20)
T7 construct: purchased Thermo Fisher Scientific
T7 sequence (Q9NR20 1-520): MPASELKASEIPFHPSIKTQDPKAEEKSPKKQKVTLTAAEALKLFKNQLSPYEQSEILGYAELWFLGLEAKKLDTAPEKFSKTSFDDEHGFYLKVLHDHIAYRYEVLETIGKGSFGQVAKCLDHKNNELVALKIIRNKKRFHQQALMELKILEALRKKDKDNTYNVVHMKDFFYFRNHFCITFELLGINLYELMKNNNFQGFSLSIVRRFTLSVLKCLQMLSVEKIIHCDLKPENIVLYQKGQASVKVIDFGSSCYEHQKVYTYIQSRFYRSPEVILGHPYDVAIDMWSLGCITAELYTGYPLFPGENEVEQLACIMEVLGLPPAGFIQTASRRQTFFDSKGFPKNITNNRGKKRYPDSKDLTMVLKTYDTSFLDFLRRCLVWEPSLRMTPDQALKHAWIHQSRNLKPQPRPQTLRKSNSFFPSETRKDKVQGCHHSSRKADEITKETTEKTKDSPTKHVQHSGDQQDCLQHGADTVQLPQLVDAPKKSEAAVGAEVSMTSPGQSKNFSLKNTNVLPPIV
In short: as §1

## COc1ccc2c(c1OC)c(=O)n1c3ccc(O)cc3c3ccnc2c31 [MW01, 5-Hydroxy-10,11-dimethoxy-9H-benzo[c]indolo[3,2,1-ij][1,5]naphthyridin-9-one]
[1]
  inhibition at 1 µM: 1%
  inhibition at 10 µM: 11%
[2]
  inhibition at 1 µM: 11%
  inhibition at 10 µM: 18%
[3]
  inhibition at 1 µM: 26%
  inhibition at 10 µM: 54%
[4]
  inhibition at 1 µM: 13%
  inhibition at 10 µM: 23%
[5]
  inhibition at 1 µM: 5%
  inhibition at 10 µM: 18%
[6]
  inhibition at 1 µM: 19%
  inhibition at 10 µM: 5%
[7]
  inhibition at 1 µM: -2%
  inhibition at 10 µM: 0%

## COc1ccc2cc3c(N)nn(C(=O)c4cccc(N(C)C)c4)c3nc2c1 [MW05, (3-Amino-7-methoxypyrazolo[3,4-b]quinolin-1-yl)-[3-(dimethylamino)phenyl]methanone]
[1]
  inhibition at 1 µM: 6%
  inhibition at 10 µM: 5%
[2]
  inhibition at 1 µM: 4%
  inhibition at 10 µM: -1%
[3]
  inhibition at 1 µM: 28%
  inhibition at 10 µM: 48%
[4]
  inhibition at 1 µM: 1%
  inhibition at 10 µM: -1%
[5]
  inhibition at 1 µM: 1%
  inhibition at 10 µM: -6%
[6]
  inhibition at 1 µM: -2%
  inhibition at 10 µM: 12%
[7]
  inhibition at 1 µM: 4%
  inhibition at 10 µM: 4%
